Experimental data taken from article PMC8277899, “A novel RyR1-selective inhibitor prevents and rescues sudden death in mouse models of malignant hyperthermia and heat stroke” (Nature Communications, 2021).
Converted amounts (≈) assume the structure as drawn. “And” between values parts separate entries of the source, which are not always exact repeats. Identical values can stand only once. Like-named read-outs stand apart in the source and are kept apart here.

Columns and labels:
R2509C mice = assay type: in vivo, mouse
[1] = Metabolic stability in human liver microsomes; assay type: in vitro ADME; conditions: 0.5 μM, NADPH
Description: Cpd1 (final concentration was 0.5 μM) was incubated with human or mouse hepatic microsomes (XenoTech Ltd, Kansas City, KS) with nicotinamide adenine dinucleotide phosphate (NADPH) for 10 and 60 min at 37 °C. Each reaction was stopped by acetonitrile, and the value of unchanged compound 1 was determined by quantitating using LC–MS/MS, and the metabolic stability was evaluated as a remaining rate (%).

R163C mice = assay type: in vivo, mouse
[2] = tested on: FDB muscle cells from WT mice; assay: Ca2+ imaging (Cal520, fura-2) of isolated single FDB cells from WT mice; assay type: cell-based, mouse
Description: (§1) WT and mutant mice (R2509C, 8- to 20-week old; R163C, 12- to 16-week old, and G2435R, 12- to 16-week old) were euthanized and flexor digitorum brevis (FDB) muscles were dissected and incubated with 2 mg/mL collagenase (Worthington Biochemical Co., NJ, USA) in the HEPES-Krebs solution containing 2 mg/mL bovine serum albumin for 2–3 h at 37 °C. Following incubation, single cells were separated by gentle trituration in collagenase-free HEPES-Krebs solution. Isolated single FDB cells were seeded on a laminin-coated cover slip of the 35 mm glass-bottom dish or on 96 well plate coated with Cultrex basement membrane matrix (Trevigen, Minneapolis, USA).
(§2) Isolated single FDB cells were incubated with 4 µM Cal520-AM (AAT Bioquest, CA, USA) or fura-2-AM (Thermo Fisher Scientific) dye in the HEPES-Krebs solution (140 mM NaCl, 5 mM KCl, 2 mM CaCl2, 1 mM MgCl2, 11 mM glucose, 5 mM HEPES, pH 7.4) for 30 min at 37 °C. The cells were then washed three times with the HEPES-Krebs solution to remove excess dye, and after 30 min of de-esterification, fluorescence images were obtained with a 20X (NA = 0.75) objective lens of an inverted microscope (Nikon TE2000-E Japan) equipped with the sCMOS camera (Zyla, Andor, Belfast, Northern Ireland) using Metamorph v7 (Molecular Devices). Cal520 was excited at 480 ± 15 nm, and fluorescence was measured at wavelengths of 525 ± 25 nm. […]

G2435R mice = assay: In vivo heat stress challenge in awake restrained G2435R mice (38 °C chamber); set-up: species or system mouse; conditions: pretreatment 30 mg/kg
[3] = tested on: FDB muscle cells from R2509C mice; assay: Mn2+ quench of fura-2 fluorescence in isolated FDB cells from R2509C mice; assay type: cell-based, mouse; conditions: 0.1 μM
Description: as §1, §2

[4] = Thermodynamic solubility in solutions for injection
[5] = preventive, 10 mg/kg 10 min before heat stress

## CCCCCCCCn1cc(C(=O)O)c(=O)c2cc3c(cc21)OCO3 [Cpd1, 6,7-(methylenedioxy)-1-octyl-4-quinolone-3-carboxylic acid]
R2509C mice; 1 mg/kg i.p. 8 times at 10 min intervals, heat stress
  effect on rise in rectal temperature: successfully prevented rise in the rectal temperature
R2509C mice; 1 mg/kg i.p. 8 times every 10 min
  Survival 90 min after heat stress challenge (survivors/total): all the mice survived
R2509C mice; 3 mg/kg, preliminary experiments
  preventive effect in heat stress experiments: no effect
R2509C mice; preventive, 10 mg/kg
  effect on rate of temperature rise: slowed the rate of temperature rise
R2509C mice; [5]
  Survival 120 min after heat stress challenge (survivors/total): 0 out of 4 and 0/4
  Time to death from start of heat stress challenge: 115.67 min and 109.33 min and 83.5 min and 85 min
R2509C mice; rescue, 3 mg/kg i.p. at 38 °C
  Survival 60 min after administration (survivors/total): 5/6
R2509C mice; rescue, 3 mg/kg i.p. at 39 °C, 3 mg/kg
  Survival 60 min after administration (survivors/total): 3/5 and 3 out of 5
R2509C mice; rescue, 10 mg/kg i.p. at 38 °C
  Survival 60 min after administration (survivors/total): 6/6
R2509C mice; rescue, 10 mg/kg i.p. at 39 °C, 10 mg/kg
  Survival 60 min after administration (survivors/total): 10/11 and 10 out of 11
R2509C mice; rescue, 3 and 10 mg/kg i.p. at 38 °C
  effect on continued rise in body temperature: strongly suppressed
[1]; 10 min
  remaining rate (residual Cpd1, 0 min = 100%): 69% and 68% and 65% and 66%
[1]; 60 min
  remaining rate (residual Cpd1, 0 min = 100%): 25% and 26% and 23%
R163C mice; 2.5 mg/kg, at 11 minutes
  survival curve status code of one mouse after isoflurane anesthesia (code not defined): 1
R163C mice; 2.5 mg/kg, at 12 minutes
  survival curve status code of one mouse after isoflurane anesthesia (code not defined): 1
R163C mice; 2.5 mg/kg, at 13 minutes
  survival curve status code of one mouse after isoflurane anesthesia (code not defined): 1
R163C mice; 2.5 mg/kg, at 14 minutes
  survival curve status code of one mouse after isoflurane anesthesia (code not defined): 1
R163C mice; 5 mg/kg, at 12 minutes
  survival curve status code of one mouse after isoflurane anesthesia (code not defined): 1
R163C mice; 5 mg/kg, at 15 minutes
  survival curve status code of one mouse after isoflurane anesthesia (code not defined): 1
R163C mice; 5 mg/kg, at 30 minutes
  survival curve status code of one mouse after isoflurane anesthesia (code not defined): 0
R163C mice; 10 mg/kg 15 min after induction of isoflurane anesthesia
  rescue effect on [Ca2+]i during MH crisis: rapidly decreased [Ca^2+]i to the levels measured in WT muscle
R163C mice; 10 mg/kg, at 30 minutes
  survival curve status code of one mouse after isoflurane anesthesia (code not defined): 0
R163C mice; pretreatment at doses of 5 and 10 mg/kg
  effect on MH episode and death under isoflurane: effectively prevented the MH episode and death
[2]; WT cells, 0.1 and 0.3 µM
  effect on resting [Ca2+]i (fura-2): no significant effect
[2]; WT, single experiments
  Ca2+ signal with Cpd1 relative to None = 1 (sheet Fig S1b): 0.9888 and 0.981 and 0.9775 and 0.9827 and 0.9913
G2435R mice
  effect on rise in rectal temperature: greatly slowed the rise in rectal temperature
[3]
  effect on rate of Mn2+ quench: no effect
[4]; free acid
  water solubility: virtually water insoluble
[4]; normal saline
  solubility in normal saline compared to dantrolene: 34 fold
[4]; normal saline (0.9% NaCl), 25 °C, saline or isotonic, thermodynamic from solid
  solubility at 48 h: 849 ± 58 µg/mL (≈ 2460 µM)
